Where two headings read alike, the source gives them in different places.
Assays:
[1] = tested on: A2C12; assay: MTS cell viability assay; assay type: cell-based, mouse
Procedure: (§1) Three human and eleven murine cancer cell lines were used. The human NSCLC cell line A549 (ACC 107) and the human colorectal carcinoma cell line CaCo2 (ACC 169) were obtained from Deutsche Sammlung von Mikroorganismen und Zellkulturen (DSMZ, Braunschweig, Germany). The human hepatocellular carcinoma cell line HepG2 (HB-8065) was obtained from American Type Culture Collection (Manassas, VA, USA). The 11 murine NSCLC cell lines were established as described recently. Cells were grown in monolayer cultures in DMEM containing 10% foetal calf serum, 4 mmol/l L-glutamine and 2% Penicillin/Streptomycin at 37°C in a humidified atmosphere of 95% air and 5% CO2.
(§2) Cell culture viability was monitored by CellTiter96® AQueous One Solution Cell Proliferation Assay (Promega GmbH, Mannheim, Germany). The cells were seeded in triplicates in 96-well microtitre plates and treated with the dual kinase inhibitors or vehicle (0.2% DMSO). After 24 h or 96 h of treatment the MTS tetrazolium reagent was added to the cells and incubated for 1 h. Absorbance at 490 nm was assayed with a Victor3 Wallac 1420 Multilabel counter (PerkinElmer, Waltham, MA, USA).

[2] = tested on: GammaA3; assay: MTS cell viability assay; assay type: cell-based, mouse
Procedure: as §1, §2

[3] = tested on: BetaD5; assay: MTS cell viability assay; assay type: cell-based, mouse
Procedure: as §1, §2

[4] = tested on: GammaD12; assay: MTS cell viability assay; assay type: cell-based, mouse; settings: MTS
Procedure: as §1, §2

[5] = tested on: A549; assay: Cell cycle analysis by flow cytometry; assay type: cell-based, human; settings: IC50 concentration, 96 h
Procedure: (§3) CycleTEST™ PLUS DNA Reagent Kit (Becton Dickinson GmbH, Heidelberg, Germany) for cell cycle analysis was used, according to the instructions of the manufacturer. Briefly, the cells were harvested with trypsin, washed with PBS, and resuspended in CycleTEST Buffer. The cells were centrifuged and resuspended in solution A. After incubation for 10 min at room temperature, solution B was added and incubated. After adding solution C, the samples were incubated at 4°C protected from light. The samples were stored on ice and protected from light until analysis by FACScan flow cytometer (Becton Dickinson GmbH, Heidelberg, Germany).

[6] = tested on: CaCo2; assay: Cell cycle analysis by flow cytometry; assay type: cell-based, human; settings: IC50 concentration, 96 h
Procedure: as §3

[7] = tested on: HepG2; assay: Cell cycle analysis by flow cytometry; assay type: cell-based, human; settings: IC50 concentration, 96 h
Procedure: as §3

[8] = tested on: A549; assay: MTS cell viability assay; assay type: cell-based, human
Procedure: as §1, §2

[9] = tested on: CaCo2; assay: MTS cell viability assay; assay type: cell-based, human
Procedure: as §1, §2

[10] = tested on: HepG2; assay: MTS cell viability assay; assay type: cell-based, human
Procedure: as §1, §2

[11] = tested on: A2C12; assay: Cell cycle analysis by flow cytometry; assay type: cell-based, mouse; settings: IC50 concentration, 96 h
Procedure: as §3

[12] = tested on: GammaA3; assay: Cell cycle analysis by flow cytometry; assay type: cell-based, mouse; settings: IC50 concentration, 96 h
Procedure: as §3

[13] = tested on: BetaD5; assay: Cell cycle analysis by flow cytometry; assay type: cell-based, mouse; settings: IC50 concentration, 96 h
Procedure: as §3

[14] = tested on: GammaD12; assay: Cell cycle analysis by flow cytometry; assay type: cell-based, mouse; settings: IC50 concentration, 96 h
Procedure: as §3

[15] = biological target: T1, c-Src (Homo sapiens, UniProt P12931); assay: Src filter-binding kinase assay (Src Assay Kit); assay type: biochemical; settings: isolated Src; calculated from ID50, ATP-competitive; E0 0.005, S0 0.012 µM
T1 construct: His tag; purchased Upstate (Lake Placid, NY, USA)
Procedure: (§4) Baculovirus-produced recombinant purified his-tagged active against human Src and Abl were purchased from Upstate (Lake Placid, NY, USA).
(§5) Src activity was measured in a filter-binding assay using the Src Assay Kit (Upstate, Lake Placid, NY, USA), according to the manufacturer's protocol, using the specific Src peptide substrate [[…]] in the presence of 0.125 pmol of Src and 0.160 pmol of [γ-^32P]ATP. Abl activity was measured in a filter-binding assay using an Abl specific peptide substrate (Abtide, Upstate). Reaction conditions were (in a final volume of 10 µl): 25 mM Tris-HCl pH 7.5, 1 mM DTT, 0.012 µM [γ-^32P]ATP, 0.022 µM c-Abl. Reactions were incubated 10 min at 30°C.The samples (9 µl) were spotted on paper cellulose filters which were washed according to the manufacturer's protocol. Filter-bound radioactivity was measured by liquid scintillation with a Microbeta-Trilux apparatus (PerkinElmer, Waltham, MA, USA).
(§6) The ID50 were converted to Ki according to a competitive mechanism with respect to the substrate ATP. […] Since (i) the ATP concentration was limiting, i.e., [ATP], Km(ATP), and (ii) the enzyme concentration was not negligible with respect to the ATP concentration, the classical Cheng-Prusoff relationship was not applicable. Consequently, Ki values were calculated according to [drawing 3] (2) where S0 is the concentration of the competing substrate (ATP) and E0 is the concentration of the enzyme. Each experiment was done in triplicate and mean values were used for the interpolation. Curve fitting was performed with the program GraphPad Prism.

[16] = biological target: T2, c-Abl (Homo sapiens, UniProt P00519); assay: Abl filter-binding kinase assay (Abtide, [γ-32P]ATP); assay type: biochemical; settings: isolated Abl; calculated from ID50, ATP-competitive; E0 0.005, S0 0.012 µM
T2 construct: His tag; purchased Upstate (Lake Placid, NY, USA)
Procedure: as §4, §5, §6

[17] = 24 h, read-out: Calculated IC50 after single treatment for 24 h
[18] = 96 h, read-out: Calculated IC50 after daily treatment for 96 h
[19] = Mus musculus, 24 h, read-out: Calculated IC50 after single treatment for 24 h
[20] = Mus musculus, 96 h, read-out: Calculated IC50 after daily treatment for 96 h
[21] = Homo sapiens, A549, 24 h, 24 h, read-out: Calculated IC50 after single treatment for 24 h
[22] = Homo sapiens, A549, 96 h, 96 h, read-out: Calculated IC50 after daily treatment for 96 h
[23] = Homo sapiens, Caco-2, 24 h, read-out: Calculated IC50 after single treatment for 24 h
[24] = Homo sapiens, Caco-2, 96 h, read-out: Calculated IC50 after daily treatment for 96 h
[25] = Homo sapiens, 24 h, read-out: Calculated IC50 after single treatment for 24 h
[26] = Homo sapiens, 96 h, read-out: Calculated IC50 after daily treatment for 96 h

T1 sequence (P12931 whole entry): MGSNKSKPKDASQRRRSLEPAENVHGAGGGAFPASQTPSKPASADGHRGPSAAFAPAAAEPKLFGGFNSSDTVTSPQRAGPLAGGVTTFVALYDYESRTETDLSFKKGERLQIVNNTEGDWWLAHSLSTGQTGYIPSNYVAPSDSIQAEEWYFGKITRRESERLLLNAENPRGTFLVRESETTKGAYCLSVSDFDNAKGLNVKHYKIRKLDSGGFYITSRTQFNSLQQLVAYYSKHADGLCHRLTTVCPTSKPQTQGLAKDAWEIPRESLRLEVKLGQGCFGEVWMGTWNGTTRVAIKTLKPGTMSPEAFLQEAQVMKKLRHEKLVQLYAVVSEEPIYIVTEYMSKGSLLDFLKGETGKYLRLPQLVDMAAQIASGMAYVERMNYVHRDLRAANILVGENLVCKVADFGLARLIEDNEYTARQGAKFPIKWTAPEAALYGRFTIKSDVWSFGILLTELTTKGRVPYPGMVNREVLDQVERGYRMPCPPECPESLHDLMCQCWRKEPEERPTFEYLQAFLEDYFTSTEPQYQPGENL
T2 sequence (P00519 whole entry): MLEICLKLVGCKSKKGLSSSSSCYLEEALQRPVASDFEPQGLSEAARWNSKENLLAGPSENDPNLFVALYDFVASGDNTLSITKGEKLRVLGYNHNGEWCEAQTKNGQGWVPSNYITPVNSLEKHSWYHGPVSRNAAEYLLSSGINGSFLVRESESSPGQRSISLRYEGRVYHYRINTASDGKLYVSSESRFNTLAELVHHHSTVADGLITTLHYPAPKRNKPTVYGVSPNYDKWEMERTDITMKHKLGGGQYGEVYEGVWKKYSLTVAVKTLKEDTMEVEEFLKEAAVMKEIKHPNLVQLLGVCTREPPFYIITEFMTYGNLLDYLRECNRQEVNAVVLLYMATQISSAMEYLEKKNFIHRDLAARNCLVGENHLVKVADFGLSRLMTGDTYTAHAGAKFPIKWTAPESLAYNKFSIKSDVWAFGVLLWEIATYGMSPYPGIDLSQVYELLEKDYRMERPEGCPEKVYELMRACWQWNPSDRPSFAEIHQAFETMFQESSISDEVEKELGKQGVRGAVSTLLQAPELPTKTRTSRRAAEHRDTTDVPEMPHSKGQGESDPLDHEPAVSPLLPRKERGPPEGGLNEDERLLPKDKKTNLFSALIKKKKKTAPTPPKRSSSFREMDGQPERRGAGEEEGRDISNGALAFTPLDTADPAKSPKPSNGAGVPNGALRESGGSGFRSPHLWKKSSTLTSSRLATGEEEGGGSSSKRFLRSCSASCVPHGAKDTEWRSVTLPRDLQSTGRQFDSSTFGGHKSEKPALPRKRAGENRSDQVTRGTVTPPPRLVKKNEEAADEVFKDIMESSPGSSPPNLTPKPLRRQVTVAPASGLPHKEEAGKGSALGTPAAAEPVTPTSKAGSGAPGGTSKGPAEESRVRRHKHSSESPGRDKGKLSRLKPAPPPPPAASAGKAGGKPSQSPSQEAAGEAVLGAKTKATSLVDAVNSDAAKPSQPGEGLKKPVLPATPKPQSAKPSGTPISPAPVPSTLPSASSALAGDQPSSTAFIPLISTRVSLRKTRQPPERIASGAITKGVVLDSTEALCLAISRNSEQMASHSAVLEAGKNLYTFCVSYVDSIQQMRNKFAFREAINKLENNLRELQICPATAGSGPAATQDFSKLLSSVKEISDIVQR

Compound	Cells in G1 phase [5] [%]	Cells in G2 phase [5] [%]	Cells in S phase [5] [%]	Cells in G1 phase [6] [%]	Cells in G2 phase [6] [%]	Cells in S phase [6] [%]	Cells in G1 phase [7] [%]	Cells in G2 phase [7] [%]	Cells in S phase [7] [%]	Cells in G1 phase [11] [%]	Cells in G2 phase [11] [%]	Cells in S phase [11] [%]	Cells in G1 phase [12] [%]	Cells in G2 phase [12] [%]	Cells in S phase [12] [%]	Cells in G1 phase [13] [%]	Cells in G2 phase [13] [%]	Cells in S phase [13] [%]	Cells in G1 phase [14] [%]	Cells in G2 phase [14] [%]	further results
Fc1ccc(C(Cl)Cn2ncc3c(Nc4cccc(Cl)c4)ncnc32)cc1 (stereo not shown) [Si104]	68.1	5.5	26.4	51	10.9	38.1	56.2	8.1	35.6	45.8	13.8	40.4	61.9	16.9	21.2	57.4	25.3	17.3	35.3	7.8	IC50 [1, 17]: 16.2 ± 1 µM; IC50 [1, 18]: 6.5 ± 0.3 µM; IC50 [2, 17]: 18.3 ± 0.7 µM; IC50 [2, 18]: 11.4 ± 0.3 µM; IC50 [3, 17]: 12.6 ± 2.6 µM; IC50 [3, 18]: 12.4 ± 1 µM; IC50 [4, 17]: 13.2 ± 0.9 µM; IC50 [4, 18]: 9.2 ± 0.5 µM; IC50 [8, 17]: 17.8 ± 2.6 µM; IC50 [8, 18]: 6.8 ± 0.1 µM; IC50 [9, 17]: 40.8 ± 1.7 µM; IC50 [9, 18]: 5.8 ± 0.2 µM; IC50 [10, 17]: 40.9 ± 1.7 µM; IC50 [10, 18]: 10.3 ± 0.7 µM; Cells in S phase [14]: 56.9%
Cc1nc(Nc2cccc(F)c2)c2cnn(CC(Cl)c3ccccc3)c2n1 (stereo not shown) [Si166]	63.2	6.6	30.2	56.7	17.8	25.5	54.6	9.6	35.8	56.1	13.6	30.4	74.4	14.1	11.5	68.3	20.8	10.9	39.5	10.2	Ki [15]: 0.338 µM; IC50 [1, 19]: 16.6 ± 1.2 µM; IC50 [1, 20]: 11.5 ± 0.5 µM; IC50 [2, 19]: 17 ± 2.3 µM; IC50 [2, 20]: 19 ± 1.3 µM; IC50 [3, 19]: 14 ± 2.1 µM; IC50 [3, 20]: 10.6 ± 0.7 µM; IC50 [4, 19]: 18.1 ± 1.4 µM; IC50 [4, 20]: 15.9 ± 1.4 µM; IC50 [8, 21]: 20.2 ± 2.5 µM; IC50 [8, 22]: 8.3 ± 0.3 µM; IC50 [9, 23]: 37.7 ± 2.4 µM; IC50 [9, 24]: 6 ± 0.7 µM; IC50 [10, 25]: 37.7 ± 2.4 µM; IC50 [10, 26]: 10.8 ± 0.9 µM; Ki [16]: 0.151 µM; Cells in S phase [14]: 50.3%
Cc1nc(Nc2cccc(Cl)c2)c2cnn(CC(Cl)c3ccccc3)c2n1 (stereo not shown) [Si167]	61.5	6.7	31.8	52.7	18	29.3	57.8	10.6	31.6	55.7	13.1	31.2	73.2	15.1	11.7	74.7	18.7	6.6	42	9.4	Ki [15]: 0.362 µM; IC50 [1, 19]: 16.4 ± 0.8 µM; IC50 [1, 20]: 10.6 ± 0.9 µM; IC50 [2, 19]: 20.5 ± 1.2 µM; IC50 [2, 20]: 16.8 ± 3.2 µM; IC50 [3, 19]: 12.4 ± 1 µM; IC50 [3, 20]: 9.3 ± 0.6 µM; IC50 [4, 19]: 19.5 ± 0.8 µM; IC50 [4, 20]: 9 ± 0.9 µM; IC50 [8, 21]: 19.8 ± 2.8 µM; IC50 [8, 22]: 5.7 ± 0.3 µM; IC50 [9, 23]: 32.2 ± 1.7 µM; IC50 [9, 24]: 5.7 ± 0.6 µM; IC50 [10, 25]: 32.2 ± 1.7 µM; IC50 [10, 26]: 11.4 ± 1.7 µM; Ki [16]: 0.5 µM; Cells in S phase [14]: 48.6%

— article PMC2994747, “Molecular Characterization of c-Abl/c-Src Kinase Inhibitors Targeted against Murine Tumour Progenitor Cells that Express Stem Cell Markers” (PLoS ONE, 2010)
